Biological target: T1, myeloperoxidase (MPO) (Homo sapiens, UniProt P05164)
T1 sequence (P05164 49-745): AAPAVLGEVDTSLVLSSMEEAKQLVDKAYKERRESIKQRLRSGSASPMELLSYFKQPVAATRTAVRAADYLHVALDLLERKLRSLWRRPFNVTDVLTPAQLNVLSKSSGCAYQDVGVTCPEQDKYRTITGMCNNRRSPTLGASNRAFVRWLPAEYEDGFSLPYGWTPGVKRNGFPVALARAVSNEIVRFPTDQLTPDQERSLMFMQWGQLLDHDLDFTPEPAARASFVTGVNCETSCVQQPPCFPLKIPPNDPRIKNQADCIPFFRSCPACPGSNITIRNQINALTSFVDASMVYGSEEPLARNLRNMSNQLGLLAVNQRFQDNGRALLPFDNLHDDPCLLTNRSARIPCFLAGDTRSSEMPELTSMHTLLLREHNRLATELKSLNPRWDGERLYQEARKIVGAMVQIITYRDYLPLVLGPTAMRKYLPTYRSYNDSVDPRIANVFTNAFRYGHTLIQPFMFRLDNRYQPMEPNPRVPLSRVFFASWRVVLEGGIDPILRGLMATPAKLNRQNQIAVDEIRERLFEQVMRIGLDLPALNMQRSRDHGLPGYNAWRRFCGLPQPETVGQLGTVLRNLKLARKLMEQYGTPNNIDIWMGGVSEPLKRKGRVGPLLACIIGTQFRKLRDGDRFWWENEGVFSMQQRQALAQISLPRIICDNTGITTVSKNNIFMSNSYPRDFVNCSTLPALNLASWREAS
Experiment: MPO peroxidation assay (Amplex Red assay)
Assay type: biochemical
Details: MPO peroxidation, potency range class; read-out: Amplex Red IC50
Method in brief: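 Peroxidase turnover of Amplex Red to fluorescent resorufin (Ex 535/Em 590 nm) was followed for 15 min in 100 mM KPi, pH 7.4, after 10 min room-temperature preincubation of compound with 200 pM enzyme plus 40 nM H2O2. The substrate mix contained 200 μM Amplex Red and 10 mM H2O2. IC50s came from linear-phase rates (180–540 s) fitted with a Hill equation.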

Row | Structure (SMILES) | IC50 [nM]
1 | Nc1cc(OCc2ccc(-n3ccccc3=O)cc2OC(F)(F)F)c2nn[nH]c2n1 [Example 256, 1-(4-(((5-amino-3H-[1,2,3]triazolo[4,5-b]pyridin-7-yl)oxy)methyl)-3-(trifluoromethoxy)phenyl) pyridin-2(1H)-one] | 101 to 999
2 | Nc1cc(OCc2ccc(-n3cccn3)cc2OC(F)(F)F)c2nn[nH]c2n1 [Example 257] | 1 to 100
3 | Nc1cc(OCc2ccc(-n3ncc4ccccc43)cc2OC(F)(F)F)c2nn[nH]c2n1 [Example 258, 7-((4-(1H-indazol-1-yl)-2-(trifluoromethoxy)benzyl)oxy)-3H-[1,2,3]triazolo[4,5-b]pyridin-5-amine] | 1 to 100
4 | Nc1cc(OCc2ccc(-n3cc4ccccc4n3)cc2OC(F)(F)F)c2nn[nH]c2n1 [Example 259, 7-((4-(2H-indazol-2-yl)-2-(trifluoromethoxy)benzyl)oxy)-3H-[1,2,3]triazolo[4,5-b]pyridin-5-amine] | 1 to 100
5 | Nc1cc(OCc2ccc(-n3cnc(-c4ccccc4)c3)cc2OC(F)(F)F)c2nn[nH]c2n1 [Example 260, 7-((4-(4-phenyl-1H-imidazol-1-yl)-2-(trifluoromethoxy)benzyl)oxy)-3H-[1,2,3] triazolo[4,5-b]pyridin-5-amine] | 1 to 100
6 | Nc1cc(OCc2ccc(-n3cnc4ccccc43)cc2OC(F)(F)F)c2nn[nH]c2n1 [Example 261, 7-((4-(1H-benzo[d]imidazol-1-yl)-2-(trifluoromethoxy)benzyl)oxy)-3H-[1,2,3] triazolo[4,5-b]pyridin-5-amine] | 101 to 999
7 | COC(=O)c1cn(-c2ccc(COc3cc(N)nc4[nH]nnc34)c(OC(F)(F)F)c2)cn1 [Example 264, methyl 1-(4-(((5-amino-3H-[1,2,3]triazolo[4,5-b]pyridin-7-yl)oxy)methyl)-3-(trifluoromethoxy)phenyl)-1H-imidazole-4-carboxylate] | 101 to 999
8 | Nc1cc(OCc2ccc(-n3cnc(CO)c3)cc2OC(F)(F)F)c2nn[nH]c2n1 [Example 265, (1-(4-(((5-amino-3H-[1,2,3]triazolo[4,5-b]pyridin-7-yl)oxy)methyl)-3-(trifluoromethoxy)phenyl)-1H-imidazol-4-yl)methanol] | 1 to 100
9 | CN(C)Cc1cn(-c2ccc(COc3cc(N)nc4[nH]nnc34)c(OC(F)(F)F)c2)cn1 [Example 266, 7-((4-(4-((dimethylamino)methyl)-1H-imidazol-1-yl)-2-(trifluoromethoxy)benzyl)oxy)-3H-[1,2,3]triazolo[4,5-b]pyridin-5-amine] | 101 to 999
10 | Nc1cc(OCc2ccc(-n3cncn3)cc2OC(F)(F)F)c2nn[nH]c2n1 [Example 267, 7-((4-(1H-1,2,4-triazol-1-yl)-2-(trifluoromethoxy)benzyl)oxy)-3H-[1,2,3]triazolo[4,5-b]pyridin-5-amine] | 1 to 100
11 | Cc1nccn1-c1ccc(COc2cc(N)nc3[nH]nnc23)c(OC(F)(F)F)c1 [Example 268, 7-((4-(2-methyl-1H-imidazol-1-yl)-2-(trifluoromethoxy)benzyl)oxy)-3H-[1,2,3] triazolo[4,5-b]pyridin-5-amine] | 1 to 100
12 | N#Cc1cnn(-c2ccc(COc3cc(N)nc4[nH]nnc34)c(OC(F)(F)F)c2)c1 [Example 270, 1-(4-(((5-amino-3H-[1,2,3]triazolo[4,5-b]pyridin-7-yl)oxy)methyl)-3-(trifluoromethoxy)phenyl)-1H-pyrazole-4-carbonitrile] | 1 to 100
13 | Nc1cc(OCc2ccc(-n3cnc(C(F)(F)F)c3)cc2OC(F)(F)F)c2nn[nH]c2n1 [Example 272, 7-((2-(trifluoromethoxy)-4-(4-(trifluoromethyl)-1H-imidazol-1-yl)benzyl)oxy)-3H-[1,2,3]triazolo[4,5-b] pyridin-5-amine] | 101 to 999
14 | Cc1cn(-c2ccc(COc3cc(N)nc4[nH]nnc34)c(OC(F)(F)F)c2)cn1 [Example 273, 7-((4-(4-methyl-1H-imidazol-1-yl)-2-(trifluoromethoxy)benzyl)oxy)-3H-[1,2,3] triazolo[4,5-b]pyridin-5-amine] | 101 to 999
15 | N#Cc1cc(-n2cnc3ccccc32)ccc1COc1cc(N)nc2[nH]nnc12 [Example 274, 2-(((5-amino-3H-[1,2,3]triazolo[4,5-b]pyridin-7-yl)oxy)methyl)-5-(1H-benzo[d]imidazol-1-yl)benzonitrile] | 101 to 999
16 | Cc1cn(-c2ccc(COc3cc(N)nc4[nH]nnc34)c(C#N)c2)cn1 [Example 276, 2-(((5-amino-3H-[1,2,3]triazolo[4,5-b]pyridin-7-yl)oxy)methyl)-5-(4-methyl-1H-imidazol-1-yl)benzonitrile] | 101 to 999
17 | Nc1cc(OCc2c(F)cc(-n3ccnc3)cc2F)c2nn[nH]c2n1 [Example 279, 7-((2,6-difluoro-4-(1H-imidazol-1-yl)benzyl)oxy)-3H-[1,2,3]triazolo[4,5-b] pyridin-5-amine] | 101 to 999
18 | CS(=O)(=O)c1cc(-n2ccnc2)ccc1COc1cc(N)nc2[nH]nnc12 [Example 280, 7-((4-(1H-imidazol-1-yl)-2-(methylsulfonyl)benzyl)oxy)-3H-[1,2,3]triazolo[4,5-b] pyridin-5-amine] | 101 to 999
19 | Nc1cc(OCc2c(F)cc(-n3ncc4ccccc43)cc2F)c2nn[nH]c2n1 [Example 281, 7-((2,6-difluoro-4-(1H-indazol-1-yl)benzyl)oxy)-3H-[1,2,3]triazolo[4,5-b]pyridin-5-amine] | 1 to 100
20 | CS(=O)(=O)c1cc(-n2ncc3ccccc32)ccc1COc1cc(N)nc2[nH]nnc12 [Example 282, 7-((4-(1H-indazol-1-yl)-2-(methylsulfonyl)benzyl)oxy)-3H-[1,2,3]triazol[4,5-b] pyridin-5-amine] | 1 to 100
21 | Nc1cc(OCc2ccc(-c3cccnc3)cc2OC(F)(F)F)c2nn[nH]c2n1 [Example 285, 7-((4-(Pyridin-3-yl)-2-(trifluoromethoxy)benzyl)oxy)-3H-[1,2,3]triazolo[4,5-b]pyridin-5-amine] | 1 to 100
22 | CNS(=O)(=O)c1ccc(-c2ccc(COc3cc(N)nc4[nH]nnc34)c(OC(F)(F)F)c2)cc1 [Example 286, 4′-(((5-amino-3H-[1,2,3]triazolo[4,5-b]pyridin-7-yl)oxy)methyl)-N-methyl-3′-(trifluoromethoxy)-[1,1′-biphenyl]-4-sulfonamide] | 1 to 100
23 | COc1ncc(-c2ccc(COc3cc(N)nc4[nH]nnc34)c(OC(F)(F)F)c2)cn1 [Example 288, 7-((4-(2-methoxypyrimidin-5-yl)-2-(trifluoromethoxy)benzyl)oxy)-3H-[1,2,3] triazolo[4,5-b]pyridin-5-amine] | 101 to 999
24 | CSc1ccc(-c2ccc(COc3cc(N)nc4[nH]nnc34)c(OC(F)(F)F)c2)cn1 [Example 289, 7-((4-(6-(methylthio)pyridin-3-yl)-2-(trifluoromethoxy)benzyl)oxy)-3H-[1,2,3] triazolo[4,5-b]pyridin-5-amine] | 1 to 100
25 | COc1ccc(-c2ccc(COc3cc(N)nc4[nH]nnc34)c(OC(F)(F)F)c2)cn1 [Example 290, 7-((4-(6-methoxypyridin-3-yl)-2-(trifluoromethoxy)benzyl)oxy)-3H-[1,2,3] triazolo[4,5-b]pyridin-5-amine] | 1 to 100
26 | Nc1ccc(-c2ccc(COc3cc(N)nc4[nH]nnc34)c(OC(F)(F)F)c2)cn1 [Example 291, 7-((4-(6-aminopyridin-3-yl)-2-(trifluoromethoxy)benzyl)oxy)-3H-[1,2,3]triazolo[4,5-b] pyridin-5-amine] | 1 to 100

Reference: US10316035B2, “Triazolopyridine inhibitors of myeloperoxidase” (BRISTOL-MYERS SQUIBB COMPANY, priority 2015, dated 2019)
